Paper PMC6933707, “Palmitoylethanolamide counteracts substance P-induced mast cell activation in vitro by stimulating diacylglycerol lipase activity” (Journal of Neuroinflammation, 2019)
Read-outs that look alike come from different tables or passages of the source.

Key:
RBL-2H3 cells [1] = assay: β-Hexosaminidase release assay; type: cell-based, rat; settings: 15 min
Procedure: RBL-2H3 cells were plated into 24-well culture dishes at a cell density of 2 × 10^5 cells per well, or into 6-well culture dishes at a cell density of 9 × 10^5 cells per well, for 1 day at 37 °C in 5% CO2 atmosphere. After 1 day, RBL-2H3 cells were stimulated with SP (10 μM) or vehicle (water) and incubated for 15 min at 37 °C in 5% CO2 atmosphere.
SP-stimulated RBL-2H3 cells (2 × 10^5 cells/well) were treated with PEA (0.1, 0.5, 1, and 10 μM) or vehicle (methanol, max 0.1%) for 15 min at 37 °C in 5% CO2 atmosphere. After 15 min, the supernatants (15 μl) were transferred to 96-well plates and incubated with 60 μl of substrate (1 mM p-nitrophenyl-N-acetyl-β-D-glucosaminide in citrate 0.05 M, pH 4.5) for 1 h at 37 °C. To determine the total amount of released β-hexosaminidase, the cells were lysed with 0.1% Triton X-100 and incubated with substrate using the same procedure as for the determination of the activity in the supernatants. The reaction was stopped by adding 150 μl of 0.1 M sodium bicarbonate buffer (pH 10.0), and the reaction product was monitored by measuring the optical density (OD) at 405 nm by using a reader GENios Pro (Tecan). The results were expressed as % of the total β-hexosaminidase content of the cells determined by cell lysis with 0.1% Triton X-100, and calculated by using the following formula: % degranulation = [ODsupernatant/(ODsupernatant + ODtriton x−100)] × 100.

RBL-2H3 cells [2] = type: cell-based; settings: 15 min
Procedure: The relative number of live and dead cells was measured after 15 min in RBL-2H3 cells (2 × 10^5 cells/well) stimulated with SP (10 μM) and treated with PEA (10 μM) by using MultiTox-Glo multiplex cytotoxicity kit, according to the manufacturer’s instructions (Promega Italia). Relative fluorescence units (RFU) were measured by using a GloMax Multi Detection System (Promega Italia).

RBL-2H3 cells [3] = assay: Toluidine blue staining, percentage of degranulation; type: cell-based, rat
Procedure: SP-stimulated RBL-2H3 cells [plated on poly-L-lysine (33 μg/ml) coated slides (Deckglaser, 21 × 26 mm) into 6-well culture dishes at a cell density of 9 × 10^5 cells per well] were treated and incubated as described above for histamine release assay. After 15 min, the cells were fixed with paraformaldehyde at 4% for 20 min and incubated for 3 min with toluidine blue at 0.01% in 3% acetic acid. Subsequently, a 5 min wash in distilled water and dehydration in increasing alcohols (90%, 100%) were performed. Cells were then clarified by treatment with Xylol for 5 min and finally dried slides were mounted with the DPX histogram upright. The cells were observed using a Leica DMI6000 digital microscope, acquired using the Leica DFC 340FX digital camera connected to the microscope and analyzed using the LAS AF 2.2.0 software. Degranulated RBL-2H3 cells were counted and the percentage of degranulation (based on the number of colorable cells) was calculated.

MGL = MGL enzyme activity assay (COS-7 cytosolic fractions); type: biochemical; settings: up to 25 μM
Procedure: The 10,000×g cytosolic fractions obtained from COS-7 cells (100 μg of protein) were incubated with 2-arachidonoyl-[^3H]-glycerol (40 Ci/mmol, St. Louis, MO, USA) diluted with non-radiolabeled 2-AG (20 μM) in the presence of vehicle or increasing concentrations of PEA (0.1-25 μM), in Tris-HCl 50 mM pH 7.4 at 37 °C for 20 min [42]. After the incubation, the amounts of [^3H]-glycerol were measured in the aqueous phase [after extraction of the incubation mixture with 2 volumes of CHCl3/CH3OH (1:1, v/v)] by using Liquid Scintillation Analyzer (TRI-carb 2100TR).

[4] = SP (10 μM)-stimulated cells, PEA 10 μM, vs vehicle-stimulated cells
[5] = substance alone 10 μM, vs vehicle

## CCCCCCCCCCCCCCCC(=O)NCCO [PEA, Palmitoylethanolamide]
RBL-2H3 cells [1]; SP (10 μM)-stimulated cells, PEA 0.1, 0.5, 1 and 10 μM, concentration-dependent, vs SP + vehicle
  β-hexosaminidase release: strongly reduced
RBL-2H3 cells [1]; substance alone 10 μM, vs vehicle-treated cells
  β-hexosaminidase release: No effect
RBL-2H3 cells [2]; [4]
  cell viability: did not alter
  cytotoxicity: did not alter
RBL-2H3 cells [2]; [5]
  cell viability: No effect
  cytotoxicity: No effect
RBL-2H3 cells [3]; SP (10 μM)-stimulated cells, compound 0.1 μM, 15 min, vs SP + vehicle
  number of degranulated cells: comparable
RBL-2H3 cells [3]; SP (10 μM)-stimulated cells, compound 10 μM, 15 min, vs SP + vehicle
  number of degranulated cells: reduced the number of SP-degranulated RBL-2H3 cells
RBL-2H3 cells [3]; SP-stimulated cells co-treated with PEA 0.1 μM and 2-AG 0.1 μM, 15 min
  number of degranulated cells: able to reduce
RBL-2H3 cells [3]; SP-stimulated cells co-treated with PEA 10 μM and AM630 0.1 μM, vs SP + vehicle or SP + AM630
  number of degranulated cells: comparable
RBL-2H3 cells [3]; substance alone 10 μM, 15 min, vs vehicle
  number of degranulated cells: no effect
MGL
  inhibitory effect on MGL activity: no inhibitory effect
  maximal % inhibition of MGL activity: < 5%
